For `O=C1OC(=O)[C@H]2[C@@H]1[C@@H]1C=C[C@H]2O1`, the solubility (mole fraction) (in 1,4-dioxane, 288.15 K) was 0.0221, the solubility (mole fraction) (in 1,4-dioxane, 293.15 K) was 0.0275 and the solubility (mole fraction) (in 1,4-dioxane, 298.15 K) was 0.0342. For the same compound, the solubility (mole fraction) (in 1,4-dioxane, 303.15 K) was 0.0421, the solubility (mole fraction) (in 1,4-dioxane, 308.15 K) was 0.052 and the solubility (mole fraction) (in 1,4-dioxane, 313.15 K) was 0.0682. The solubility (mole fraction) (in 1,4-dioxane, 318.15 K) was 0.0869, the solubility (mole fraction) (in 1,4-dioxane, 323.15 K) was 0.131 and the solubility (mole fraction) (in acetone, 278.15 K) was 0.0386. The solubility (mole fraction) (in acetone, 283.15 K) was 0.0439, the solubility (mole fraction) (in acetone, 288.15 K) was 0.0477 and the solubility (mole fraction) (in acetone, 293.15 K) was 0.0551. It also gave a solubility (mole fraction) (in acetone, 298.15 K) of 0.0617, a solubility (mole fraction) (in acetone, 303.15 K) of 0.0703 and a solubility (mole fraction) (in acetone, 308.15 K) of 0.0814. For the same compound, the solubility (mole fraction) (in acetone, 313.15 K) was 0.0929, the solubility (mole fraction) (in acetone, 318.15 K) was 0.104 and the solubility (mole fraction) (in acetone, 323.15 K) was 0.126. The solubility (mole fraction) (in ethanol, 278.15 K) was 0.000635, the solubility (mole fraction) (in ethanol, 283.15 K) was 0.00076 and the solubility (mole fraction) (in ethanol, 288.15 K) was 0.00091. It also gave a solubility (mole fraction) (in ethanol, 293.15 K) of 0.00102, a solubility (mole fraction) (in ethanol, 298.15 K) of 0.00124 and a solubility (mole fraction) (in ethanol, 303.15 K) of 0.00145. For the same compound, the solubility (mole fraction) (in ethanol, 308.15 K) was 0.00169, the solubility (mole fraction) (in ethanol, 313.15 K) was 0.00202 and the solubility (mole fraction) (in ethanol, 318.15 K) was 0.00238. For the same compound, the solubility (mole fraction) (in ethanol, 323.15 K) was 0.00292, the solubility (mole fraction) (in ethyl acetate, 278.15 K) was 0.0152 and the solubility (mole fraction) (in ethyl acetate, 283.15 K) was 0.0165. The solubility (mole fraction) (in ethyl acetate, 288.15 K) was 0.02, the solubility (mole fraction) (in ethyl acetate, 293.15 K) was 0.0223 and the solubility (mole fraction) (in ethyl acetate, 298.15 K) was 0.0274. For the same compound, the solubility (mole fraction) (in ethyl acetate, 303.15 K) was 0.0309, the solubility (mole fraction) (in ethyl acetate, 308.15 K) was 0.0364 and the solubility (mole fraction) (in ethyl acetate, 313.15 K) was 0.0414. The solubility (mole fraction) (in ethyl acetate, 318.15 K) was 0.0475, the solubility (mole fraction) (in ethyl acetate, 323.15 K) was 0.0559 and the solubility (mole fraction) (in methyl acetate, 278.15 K) was 0.0225. The solubility (mole fraction) (in methyl acetate, 283.15 K) was 0.028, the solubility (mole fraction) (in methyl acetate, 288.15 K) was 0.0297 and the solubility (mole fraction) (in methyl acetate, 293.15 K) was 0.0357. The solubility (mole fraction) (in methyl acetate, 298.15 K) was 0.0416, the solubility (mole fraction) (in methyl acetate, 303.15 K) was 0.0483 and the solubility (mole fraction) (in methyl acetate, 308.15 K) was 0.0587. The solubility (mole fraction) (in methyl acetate, 313.15 K) was 0.068, the solubility (mole fraction) (in methyl acetate, 318.15 K) was 0.0805 and the solubility (mole fraction) (in methyl acetate, 323.15 K) was 0.0963.

— BigSolDB 2.1
